Results as given in ChEMBL document CHEMBL4033656, “Organocatalyzed and mechanochemical solvent-free synthesis of novel and functionalized bis-biphenyl substituted thiazolidinones as potent tyrosinase inhibitors: SAR and molecular modeling studies” (Eur J Med Chem, 2017).

Target: Mushroom tyrosinase (Agaricus bisporus, UniProt O42713+Q00024+C7FF04+C7FF05)
Test: Inhibition of mushroom tyrosinase preincubated for 5 mins followed by addition of […] as substrate measured after 30 mins

| IC50 [µM] | SMILES |
| --- | --- |
| 0.61 | O=C1CSC(c2ccccc2O)N1c1ccc(-c2ccc(N3C(=O)CSC3c3ccccc3O)cc2)cc1 (stereo not drawn) |
| 21.61 | O=C1CSC(c2ccccc2)N1c1ccc(-c2ccc(N3C(=O)CSC3c3ccccc3)cc2)cc1 (stereo not drawn) |
| < 500 | Cc1cc(-c2ccc(N3C(=O)CSC3c3ccc(N(C)C)cc3)c(C)c2)ccc1N1C(=O)CSC1c1ccc(N(C)C)cc1 (stereo not drawn) |
| 4.41 | COc1ccc(C2SCC(=O)N2c2ccc(-c3ccc(N4C(=O)CSC4c4ccc(OC)cc4)cc3)cc2)cc1 (stereo not drawn) |
| 2.41 | COc1cc(C2SCC(=O)N2c2ccc(-c3ccc(N4C(=O)CSC4c4ccc(O)c(OC)c4)cc3)cc2)ccc1O (stereo not drawn) |
| 2.81 | COc1cc(C2SCC(=O)N2c2ccc(-c3ccc(N4C(=O)CSC4c4ccc(O)c(OC)c4)c(C)c3)cc2C)ccc1O (stereo not drawn) |
| 7.71 | Cc1cc(-c2ccc(N3C(=O)CSC3c3ccccc3)c(C)c2)ccc1N1C(=O)CSC1c1ccccc1 (stereo not drawn) |
| 342.52 | O=C1CSC(c2ccc(O)cc2)N1c1ccc(-c2ccc(N3C(=O)CSC3c3ccc(O)cc3)cc2)cc1 (stereo not drawn) |
